Source: ChEMBL document CHEMBL5500324, “The potential of marine-derived piperazine alkaloids: Sources, structures and bioactivities” (Eur J Med Chem, 2024)
Converted amounts (≈) assume the structure as drawn.

Assays:
[1] = test system: Bel-7402; assay: Cytotoxicity against human Bel-7402 cells assessed as reduction in cell viability measured for 48 hrs by MTT assay; format: functional, cell-based; conditions: Bel-7402, 48 h
[2] = test system: HL-60; assay: Cytotoxicity against human HL-60 cells assessed as reduction in cell viability by MTT assay; format: functional, cell-based
[3] = test system: A549; assay: Cytotoxicity against human A549 cells assessed as reduction in cell viability measured for 48 hrs by MTT assay; format: functional, cell-based; conditions: A549, 48 h
[4] = test system: MOLT-4; assay: Cytotoxicity against human MOLT-4 cells assessed as reduction in cell viability by MTT assay; format: functional, cell-based
[5] = test system: P388; assay: Cytotoxicity against mouse P388 cells assessed as reduction in cell viability; format: functional; conditions: read-out: ED50 (the source's name)
[6] = test system: A549; assay: Antiproliferative activity against human A549 cells assessed as reduction in cell viability incubated for 72 hrs by SRB assay; format: functional, cell-based; conditions: A549, 72 h
[7] = test system: HT-29; assay: Antiproliferative activity against human HT-29 cells assessed as reduction in cell viability incubated for 72 hrs by SRB assay; format: functional, cell-based; conditions: HT-29, 72 h
[8] = test system: MDA-MB-231; assay: Antiproliferative activity against human MDA-MB-231 cells assessed as reduction in cell viability incubated for 72 hrs by SRB assay; format: functional, cell-based; conditions: MDA-MB-231, 72 h
[9] = test system: P388; assay: Cytotoxicity against mouse P388 cells; format: functional; conditions: read-out: ED50 (the source's name)
[10] = test system: SF-268; assay: Cytotoxicity against human SF-268 cells assessed as reduction in cell growth incubated for 48 hrs by SRB assay; format: functional, cell-based; conditions: SF-268, 48 h
[11] = test system: HepG2; assay: Cytotoxicity against human HepG2 cells assessed as reduction in cell growth incubated for 48 hrs by SRB assay; format: functional, cell-based; conditions: HepG2, 48 h
[12] = test system: MCF7; assay: Cytotoxicity against human MCF7 cells assessed as reduction in cell growth incubated for 48 hrs by SRB assay; format: functional, cell-based; conditions: MCF7, 48 h
[13] = test system: NCI-H460; assay: Cytotoxicity against human NCI-H460 cells assessed as reduction in cell growth incubated for 48 hrs by SRB assay; format: functional, cell-based; conditions: NCI-H460, 48 h
[14] = test system: P388; assay: Cytotoxicity against mouse P388 cells assessed as inhibition of cell growth; format: functional, cell-based
[15] = test system: HT-29; assay: Cytotoxicity against human HT-29 cells assessed as inhibition of cell growth; format: functional, cell-based
[16] = test system: A549; assay: Cytotoxicity against human A549 cells assessed as inhibition of cell growth; format: functional, cell-based
[17] = test system: SK-MEL-28; assay: Cytotoxicity against human SK-MEL-28 cells assessed as inhibition of cell growth; format: functional, cell-based
[18] = test system: HCT-116; assay: Antiproliferative activity against human HCT-116 cells assessed as reduction in cell viability incubated for 24 hrs by MTT assay; format: functional, cell-based; conditions: HCT-116, 24 h
[19] = test system: QG-56; assay: Cytotoxicity against human QG-56 cells assessed as reduction in cell growth incubated for 24 hrs by MTT assay; format: functional, cell-based; conditions: QG-56, 24 h
[20] = test system: DU-145; assay: Cytotoxicity against human DU-145 cells assessed as cell growth inhibition measured after 48 hrs by MTT assay; format: functional, cell-based; conditions: DU-145, 48 h

What does the source list for `C=C(C)[C@H](O)Cn1c2c(c3ccc(OC)cc31)[C@H](O)[C@@]1(O)C(=O)N3CCC[C@H]3C(=O)N1[C@H]2C=C(C)C`?
IC50 [1]: 10.8 µM; IC50 [2]: 5.4 µM; IC50 [3]: 11.6 µM; IC50 [4]: 11 µM

Which EC50 [5] does the source give for `CC(C)[C@]12SSS[C@]3(C(=O)N1C)[C@@H](O)C1(c4c[nH]c5ccccc45)c4ccccc4N[C@@H]1N3C2=O` (some centres not stated) here?
Its EC50 is 46 ng/mL (≈ 87.7 nM).

Which results are given for `CN1C[C@@H](c2c[nH]c3cc(Br)ccc23)NC[C@@H]1c1c[nH]c2ccccc12`?
IC50 [6]: 2.7 µM; IC50 [7]: 3.3 µM; IC50 [8]: 4.7 µM

How did the EC50 [9] turn out when `CS[C@@]1(C(C)C)C(=O)N2C(=CC3(C45c6ccccc6N[C@H]4N4C(=O)[C@H](CO)N(C)C(=O)[C@@]4(O)[C@H]5O)c4ccccc4N[C@H]23)C(=O)N1C` (some centres not stated) was run?
Its EC50 is 14800 ng/mL (≈ 22400 nM).

With `CC(C)[C@]12SSS[C@]3(C(=O)N1C)[C@@H](O)C1(C45c6ccccc6N[C@H]4N4C(=O)[C@@]6(CO)SSS[C@]4(C(=O)N6C)[C@H]5O)c4ccccc4N[C@@H]1N3C2=O` (some centres not stated) as the compound, how does the EC50 [9] read?
The EC50 was 4.3 ng/mL (≈ 5.34 nM).

Which IC50 [6] does the source give for `CN1C[C@@H](c2c[nH]c3cc(Br)ccc23)N(C)C[C@@H]1c1c[nH]c2cc(Br)ccc12` here?
The IC50 was 20.3 µM.

What about the IC50 [7] of the same compound?
Its IC50 is 19.3 µM.

What about the IC50 [8] of the same compound?
The IC50 was 28 µM.

How did the IC50 [10] turn out when `CS[C@]1(CO)C(=O)n2c(cc3ccccc32)C(=O)N1C` was run?
The IC50 was 35.7 µM.

And the IC50 [11]?
The IC50 was 28.9 µM.

What about the IC50 [12] of the same compound?
Its IC50 is 29.5 µM.

What about the IC50 [13] of the same compound?
The IC50 was > 100 µM.

For `CC(C)[C@]12SS[C@]3(C(=O)N1C)[C@@H](O)C1(c4c[nH]c5ccccc45)c4ccccc4N[C@@H]1N3C2=O` (some centres not stated), which EC50 [5] is on record?
Its EC50 is 86 ng/mL (≈ 175 nM).

What does the source list for `C=C(C)[C@@H](O)Cn1c2c(c3ccc(OC)cc31)[C@H](O)[C@@]1(O)C(=O)N3CCC[C@H]3C(=O)N1[C@H]2C=C(C)C`?
IC50 [1]: 7 µM; IC50 [2]: 3.4 µM; IC50 [3]: 11 µM; IC50 [4]: 11 µM

For `CSS[C@]1(C(C)C)C(=O)N2C(=CC3(C45c6ccccc6N[C@H]4N4C(=O)[C@H](CO)N(C)C(=O)[C@@]4(O)[C@H]5O)c4ccccc4N[C@H]23)C(=O)N1C` (some centres not stated), which EC50 [9] is on record?
Its EC50 is 100 ng/mL (≈ 144 nM).

With `COc1ccc2c(c1)N(CC=C(C)C)C(=O)[C@]21[C@H](C=C(C)C)N2C(=O)[C@]3(O)CCCN3C(=O)[C@]2(O)[C@H]1O` as the compound, how does the IC50 [1] read?
The IC50 was 17.5 µM.

And the IC50 [2]?
The IC50 was 45 µM.

What about the IC50 [3] of the same compound?
Its IC50 is 35.5 µM.

What about the IC50 [4] of the same compound?
Its IC50 is 25.7 µM.

Which EC50 [5] does the source give for `CC(C)[C@]12SSSS[C@]3(C(=O)N1C)[C@@H](O)C1(c4c[nH]c5ccccc45)c4ccccc4N[C@@H]1N3C2=O` (some centres not stated) here?
The EC50 was 56 ng/mL (≈ 101 nM).

How did the EC50 [9] turn out when `CC(C)[C@]12SSS[C@]3(C(=O)N1C)[C@@H](O)C1(C45c6ccccc6N[C@H]4N4C(=O)[C@@]6(C(C)C)SS[C@]4(C(=O)N6C)[C@H]5O)c4ccccc4N[C@@H]1N3C2=O` (some centres not stated) was run?
The EC50 was 2.2 ng/mL (≈ 2.8 nM).

Which EC50 [5] does the source give for `CC(C)[C@]12SS[C@]3(C(=O)N1C)[C@@H](O)C1(C45c6ccccc6N[C@H]4N4C(=O)[C@@]6(CO)SSSS[C@]4(C(=O)N6C)[C@H]5O)c4ccccc4N[C@@H]1N3C2=O` (some centres not stated) here?
Its EC50 is 1.85 ng/mL (≈ 2.3 nM).

How did the IC50 [14] turn out when `COc1c(C)cc2c(c1O)[C@H]1[C@@H]3[C@@H]4SC[C@H](N)C(=O)OC[C@@H](c5c(O)c(OC)c(C)c(OC(C)=O)c54)N3[C@@H](O)[C@@H](C2)N1C` was run?
Its IC50 is 2 µM.

What about the IC50 [15] of the same compound?
Its IC50 is 2 ng/mL (≈ 3.25 nM).

What about the IC50 [16] of the same compound?
Its IC50 is 2 ng/mL (≈ 3.25 nM).

What about the IC50 [17] of the same compound?
The IC50 was 2 ng/mL (≈ 3.25 nM).

With `COC1=C(C)C(=O)C2=C(C1=O)[C@H](CO)N1[C@@H](C#N)[C@@H]3[C@@H](O)c4c(O)c(C)c(OC)c(O)c4[C@H]([C@@H]1C2)N3C` as the compound, how does the IC50 [18] read?
The IC50 was 0.455 µM.

And the IC50 [19]?
The IC50 was 0.618 µM.

And the IC50 [20]?
The IC50 was 0.448 µM.

With `CC(C)[C@]12SSS[C@]3(C(=O)N1C)[C@@H](O)C1(C45c6ccccc6N[C@H]4N4C(=O)[C@@]6(CO)SS[C@]4(C(=O)N6C)[C@H]5O)c4ccccc4N[C@@H]1N3C2=O` (some centres not stated) as the compound, how does the EC50 [9] read?
Its EC50 is 4.4 ng/mL (≈ 5.69 nM).

`CO[C@@]12C(=O)N(C)[C@@H](C(C)C)C(=O)N1[C@@H]1Nc3ccccc3C1(C13c4ccccc4N[C@@H]1N1C(=O)[C@@]4(C(C)C)SSS[C@]1(C(=O)N4C)[C@@H]3O)[C@H]2O` (some centres not stated) was tested. Which EC50 [9] did it give?
Its EC50 is 190 ng/mL (≈ 252 nM).

With `CC(C)[C@]12SSSS[C@]3(C(=O)N1C)[C@@H](O)C1(C45c6ccccc6N[C@H]4N4C(=O)[C@@]6(CO)SS[C@]4(C(=O)N6C)[C@H]5O)c4ccccc4N[C@@H]1N3C2=O` (some centres not stated) as the compound, how does the EC50 [9] read?
Its EC50 is 3 ng/mL (≈ 3.73 nM).

`C/C=C(/C)C(=O)OC[C@H]1C2=C(C[C@H]3[C@H]4C5=C(C[C@@H]([C@H](C#N)N13)N4C)C(=O)C(C)=C(OC)C5=O)C(=O)C(C)=C(OC)C2=O` [RENIERAMYCIN M] was tested. Which IC50 [19] did it give?
The IC50 was 0.00076 µM.

What about the IC50 [20] of the same compound?
The IC50 was 0.019 µM.
